Experimental data: patent publication US6555570B2, “Compounds with growth hormone releasing properties” (Novo Nordisk A/S, priority 1995, dated 2003)
Where a name gives a salt, the structure may show the parent alone.

SMILES: CN(C(=O)[C@@H](Cc1ccc2ccccc2c1)N(C)C(=O)/C=C/CC(C)(C)N)[C@@H](CNC(=S)NC1CC1)Cc1ccccc1 (as salt: trifluoroacetic acid salt)
- melting point: 138 to 145 °C
